Tests used:
Homo sapiens = species: Homo sapiens; experiment: Inhibition of PI3K (unknown origin) at 20 uM relative to control
HeLa [1] = experiment: Cytotoxicity against human HeLa cells; type: functional, cell-based; settings: pooled result: one value given for 5 cell lines, strains, targets or settings
Ebolavirus = experiment: Antiviral activity against Ebola virus pseudotyped infected in HEK293T cells assessed as reduction in viral cytopathic effect; type: functional, organism-based; settings: Orthoebolavirus, HEK-293T
SARS-CoV = experiment: Antiviral activity against SARS-CoV Live SARS-CoV assay and cytotoxicity assessed as reduction in viral cytopathic effect; type: functional, organism-based; settings: Severe acute respiratory syndrome-related coronavirus
ES-2 = experiment: Cytotoxicity against human ES2 cells incubated for 48 hrs by MTT assay; type: functional, cell-based; settings: ES-2, 48 h
[2] = Cytotoxicity against human HO-8910 cells incubated for 48 hrs by MTT assay; type: functional, cell-based; settings: HO-8910, 48 h
K562 = experiment: Cytotoxicity against human K562 cells incubated for 48 hrs by MTT assay; type: functional, cell-based; settings: K562, 48 h
[3] = Cytotoxicity against HBMSC cells incubated for 48 hrs by MTT assay; type: toxicity, cell-based; settings: human
A-375 = experiment: Anticancer activity against human A-375 cells; type: functional, cell-based
MDA-MB-231 = experiment: Anticancer activity against human MDA-MB-231 cells; type: functional, cell-based
[4] = biological target: Telomerase reverse transcriptase (Homo sapiens, UniProt O14746); experiment: Inhibition of telomerase (unknown origin)
HT-29 = experiment: Cytotoxicity against human HT-29 cells assessed as reduction in cell viability; type: functional, cell-based
PC-3 = experiment: Cytotoxicity against human PC-3 cells assessed as reduction in cell viability; type: functional, cell-based
MeWo = experiment: Cytotoxicity against human MeWo cells assessed as reduction in cell viability; type: functional, cell-based
[5] = Cytotoxicity against human SB2 cells assessed as reduction in cell viability; type: functional, cell-based
OVCAR-3 = experiment: Cytotoxicity against human OVCAR-3 cells assessed as reduction in cell viability; type: functional, cell-based
SK-OV-3 = experiment: Cytotoxicity against human SK-OV-3 cells assessed as reduction in cell viability; type: functional, cell-based
HUVEC = experiment: Antitubulin activity against HUVEC assessed as morphological changes of tube incubated for 6 hrs by inverted microscope; type: functional, cell-based; settings: Homo sapiens
Staphylococcus aureus = experiment: Antimicrobial activity against Staphylococcus aureus assessed as zone of inhibition at 100 uM; type: functional
Bacillus subtilis = experiment: Antimicrobial activity against Bacillus subtilis assessed as zone of inhibition at 100 uM; type: functional
Escherichia coli = experiment: Antimicrobial activity against Escherichia coli assessed as zone of inhibition; type: functional
Klebsiella pneumoniae = experiment: Antimicrobial activity against Klebsiella pneumoniae assessed as zone of inhibition; type: functional
Fusarium solani = experiment: Antifungal activity against Fusarium solani assessed as zone of inhibition; type: functional
Curvularia lunata = experiment: Antifungal activity against Cochliobolus lunatus assessed as zone of inhibition; type: functional
Aspergillus niger = experiment: Antifungal activity against Aspergillus niger assessed as zone of inhibition; type: functional
PC-12 = experiment: Neuroprotection against H2O2-induced cell injury in rat PC-12 cells assessed as cell viability preincubated for 3 hrs followed by H2O2 addition measured after 5 hrs by MTT assay; type: functional; settings: time 8 hrs
Human alphaherpesvirus 3 = experiment: Antiviral activity against VZV strain Oka bearing wild type thymidine kinase assessed as reduction in virus induced cytopathogenicity; type: functional, organism-based
BV-2 = experiment: Anti-infalmmatory activity in LPS-induced NO production in mouse BV-2 microglial cells preincubated for 3 hrs followed by LPS addition measured after 24 hrs by NO assay kit; type: functional, cell-based
[6] = Permeability of the compound across blood brain barrier by PAMPA; type: ADME, tissue-based; settings: read-out: logBB (converted)
[7] = Permeability across blood brain barrier assessed as central nervous system multi-parameter optimization score; type: ADME, tissue-based
A-431 = experiment: Cytotoxicity against human A431 cells expressing EGFR incubated for 72 hrs by MTT assay; type: functional, cell-based; settings: A-431, 72 h
A549 = experiment: Cytotoxicity against human A549 cells expressing EGFR incubated for 72 hrs by MTT assay; type: functional, cell-based; settings: A549, 72 h
NCI-H1975 = experiment: Cytotoxicity against human NCI-H1975 cells expressing EGFR T790 mutant incubated for 72 hrs by MTT assay; type: functional, cell-based; settings: NCI-H1975, 72 h
L1210 = experiment: Antiproliferative activity against mouse L1210 cells treated for 48 hrs; type: functional, cell-based; settings: L1210, 48 h
CCRF-CEM = experiment: Antiproliferative activity against human CEM cells treated for 96 hrs; type: functional, cell-based
HeLa [8] = experiment: Antiproliferative activity against human HeLa cells treated for 4 days; type: functional, cell-based; settings: 96 h
Cholinesterase [9] = biological target: Cholinesterase (Equus caballus, UniProt P81908); experiment: Inhibition of horse serum BuChE preincubated for 5 mins followed by BuCh addition measured after 5 mins by Ellman's method
Cholinesterase [10] = biological target: T1, Cholinesterase (Homo sapiens, UniProt P06276); experiment: Inhibition of human serum BuChE preincubated for 5 mins followed by BuCh addition measured after 5 mins by Ellman's method
Acetylcholinesterase = Acetylcholinesterase (Homo sapiens, UniProt P22303); experiment: Inhibition of AChE (unknown origin) preincubated for 5 mins followed by […] measured after 5 mins by Ellman's method
Cholinesterase [11] = biological target: T1, Cholinesterase; experiment: Binding affinity to BuChE (unknown origin) assessed as inhibition constant

Sequence of Telomerase reverse transcriptase (O14746 whole entry): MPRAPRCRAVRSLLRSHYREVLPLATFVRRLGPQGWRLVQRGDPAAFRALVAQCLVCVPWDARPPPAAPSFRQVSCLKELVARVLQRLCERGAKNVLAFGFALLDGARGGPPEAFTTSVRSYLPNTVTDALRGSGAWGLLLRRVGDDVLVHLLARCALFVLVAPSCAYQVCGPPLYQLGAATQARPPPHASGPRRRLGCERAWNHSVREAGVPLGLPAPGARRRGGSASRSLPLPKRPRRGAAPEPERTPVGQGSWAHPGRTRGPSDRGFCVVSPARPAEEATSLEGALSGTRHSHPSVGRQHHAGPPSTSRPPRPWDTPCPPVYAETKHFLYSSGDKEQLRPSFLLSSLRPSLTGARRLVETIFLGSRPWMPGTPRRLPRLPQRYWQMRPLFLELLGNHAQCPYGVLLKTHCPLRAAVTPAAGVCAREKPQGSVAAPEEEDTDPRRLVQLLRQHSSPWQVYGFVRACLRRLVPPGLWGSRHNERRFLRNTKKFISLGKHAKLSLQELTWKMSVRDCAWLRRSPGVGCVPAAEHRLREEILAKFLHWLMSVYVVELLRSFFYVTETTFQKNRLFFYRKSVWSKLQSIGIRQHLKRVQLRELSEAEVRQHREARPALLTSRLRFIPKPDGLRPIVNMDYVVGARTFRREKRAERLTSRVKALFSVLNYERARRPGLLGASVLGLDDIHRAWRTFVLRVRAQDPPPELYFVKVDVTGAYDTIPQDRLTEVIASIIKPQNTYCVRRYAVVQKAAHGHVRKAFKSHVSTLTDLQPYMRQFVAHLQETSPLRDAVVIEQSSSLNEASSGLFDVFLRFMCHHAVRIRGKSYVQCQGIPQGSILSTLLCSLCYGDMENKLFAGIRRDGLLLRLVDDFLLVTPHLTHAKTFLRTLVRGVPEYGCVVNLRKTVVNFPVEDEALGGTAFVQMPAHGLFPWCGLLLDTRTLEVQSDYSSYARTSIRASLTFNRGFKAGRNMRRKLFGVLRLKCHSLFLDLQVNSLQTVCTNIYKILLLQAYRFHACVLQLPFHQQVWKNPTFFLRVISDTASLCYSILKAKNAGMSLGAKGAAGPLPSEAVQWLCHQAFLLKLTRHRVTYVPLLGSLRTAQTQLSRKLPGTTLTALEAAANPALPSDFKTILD
T1 sequence (P06276 whole entry): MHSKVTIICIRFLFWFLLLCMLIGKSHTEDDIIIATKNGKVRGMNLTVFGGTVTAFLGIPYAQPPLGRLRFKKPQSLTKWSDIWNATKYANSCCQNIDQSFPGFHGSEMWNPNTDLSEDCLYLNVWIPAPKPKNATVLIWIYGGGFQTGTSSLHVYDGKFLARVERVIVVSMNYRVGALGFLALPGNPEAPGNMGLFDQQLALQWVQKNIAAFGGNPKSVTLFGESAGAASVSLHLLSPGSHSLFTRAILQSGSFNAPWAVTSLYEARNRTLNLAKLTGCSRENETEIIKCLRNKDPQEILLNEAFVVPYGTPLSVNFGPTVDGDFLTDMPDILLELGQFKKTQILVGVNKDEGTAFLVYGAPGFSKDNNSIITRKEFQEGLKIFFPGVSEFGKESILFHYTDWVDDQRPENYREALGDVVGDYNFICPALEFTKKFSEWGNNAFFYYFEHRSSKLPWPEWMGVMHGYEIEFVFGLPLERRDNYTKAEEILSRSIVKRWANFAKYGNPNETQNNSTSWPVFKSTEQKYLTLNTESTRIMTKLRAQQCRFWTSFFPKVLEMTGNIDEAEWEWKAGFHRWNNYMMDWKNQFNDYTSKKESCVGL
Sequence of Acetylcholinesterase (P22303 whole entry): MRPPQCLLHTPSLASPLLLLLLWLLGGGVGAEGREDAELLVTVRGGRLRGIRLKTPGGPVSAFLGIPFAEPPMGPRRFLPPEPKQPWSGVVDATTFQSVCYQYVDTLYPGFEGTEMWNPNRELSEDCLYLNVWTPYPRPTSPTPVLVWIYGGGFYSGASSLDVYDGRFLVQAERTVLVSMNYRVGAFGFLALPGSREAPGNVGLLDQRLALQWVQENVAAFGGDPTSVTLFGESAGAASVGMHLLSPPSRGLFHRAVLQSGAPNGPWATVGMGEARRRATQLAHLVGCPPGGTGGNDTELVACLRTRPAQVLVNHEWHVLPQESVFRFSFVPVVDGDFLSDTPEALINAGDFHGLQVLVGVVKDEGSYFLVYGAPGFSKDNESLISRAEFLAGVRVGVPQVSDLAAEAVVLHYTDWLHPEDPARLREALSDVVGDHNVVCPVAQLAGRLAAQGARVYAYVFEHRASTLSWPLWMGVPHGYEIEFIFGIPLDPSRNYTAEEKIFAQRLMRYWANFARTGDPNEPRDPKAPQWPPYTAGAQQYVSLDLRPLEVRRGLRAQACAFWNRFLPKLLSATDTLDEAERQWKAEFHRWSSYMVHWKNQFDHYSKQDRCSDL
Sequence of Cholinesterase (Equus caballus, UniProt P81908) (P81908 whole entry): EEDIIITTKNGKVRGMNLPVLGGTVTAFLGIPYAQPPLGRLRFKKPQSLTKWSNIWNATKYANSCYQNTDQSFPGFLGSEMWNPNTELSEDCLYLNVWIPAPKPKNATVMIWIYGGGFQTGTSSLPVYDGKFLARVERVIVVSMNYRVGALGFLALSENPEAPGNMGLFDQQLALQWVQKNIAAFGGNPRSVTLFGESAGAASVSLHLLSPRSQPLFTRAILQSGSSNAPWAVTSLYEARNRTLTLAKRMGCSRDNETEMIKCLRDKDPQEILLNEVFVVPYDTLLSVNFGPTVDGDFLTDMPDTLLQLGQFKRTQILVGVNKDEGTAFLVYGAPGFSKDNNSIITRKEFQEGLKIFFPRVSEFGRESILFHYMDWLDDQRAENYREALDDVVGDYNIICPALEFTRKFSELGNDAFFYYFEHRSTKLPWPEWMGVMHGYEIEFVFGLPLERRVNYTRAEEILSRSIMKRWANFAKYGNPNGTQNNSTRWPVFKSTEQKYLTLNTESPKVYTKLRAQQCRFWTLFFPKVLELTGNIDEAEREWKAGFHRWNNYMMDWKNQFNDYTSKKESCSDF

O=c1oc2ccc(Br)cc2cc1S(=O)(=O)Cc1ccc(F)cc1
inhibition (Homo sapiens): 50% | IC50 (HeLa [1]): 29300 nM

CN1CCN(C(=O)N[C@@H](Cc2ccccc2)C(=O)N[C@H](/C=C/S(=O)(=O)c2ccccc2)CCc2ccccc2)CC1 [K-777]
IC50 (Ebolavirus): 0.36 nM

O=C(N[C@H](/C=C/S(=O)(=O)c1ccccc1)CCc1ccccc1)[C@H](Cc1ccccc1)NC(=O)N1CCN(c2ccccc2)CC1
IC50 (SARS-CoV): 0.04 nM | IC50 (Ebolavirus): 0.04 nM

CC(=O)c1ccc(/C(=C\C(F)(F)F)S(=O)(=O)c2ccccc2)cc1
IC50 (ES-2): 400 nM | IC50 [2]: 400 nM | IC50 (K562): 200 nM | IC50 at 48 h [3]: 200 nM

O=S(=O)(F)/C=C/C=C/c1ccc(/C=C/S(=O)(=O)F)cc1
IC50 (A-375): 1580 nM | IC50 (MDA-MB-231): 3220 nM | IC50 [4]: < 1000 nM

O=S(=O)(F)/C=C/c1ccc2ccccc2c1
IC50 [4]: < 1000 nM

COCCN1CCN(C(=O)N[C@@H](Cc2ccccc2)C(=O)N[C@H](/C=C/S(=O)(=O)c2ccccc2)CCc2ccccc2)CC1
IC50 (SARS-CoV): 0.04 nM | IC50 (Ebolavirus): 0.04 nM

C=C(CCCCCCCCCCCCCCCC)S(=O)(=O)CCC[N+](C)(C)C
IC50 (HT-29): 390 nM | IC50 (PC-3): 390 nM | IC50 (MeWo): 390 nM | IC50 [5]: 390 nM | IC50 (OVCAR-3): 390 nM | IC50 (SK-OV-3): 390 nM

COc1ccc(/C=C/S(=O)(=O)c2cc(OC)c(OC)c(OC)c2)cc1N
IC50 (HUVEC): 4250 nM

O=C(c1ccc(Cl)cc1)c1c[nH]cc1S(=O)(=O)c1n[nH]cc1-c1ccccc1
Activity (Staphylococcus aureus): >25 mm | Activity (Bacillus subtilis): >25 mm | Activity (Escherichia coli): >20 mm | Activity (Klebsiella pneumoniae): >20 mm | Activity (Fusarium solani): >26 mm | Activity (Curvularia lunata): >26 mm | Activity (Aspergillus niger): >26 mm

O=C(N[C@H](CO)[C@H](O)c1ccc([N+](=O)[O-])cc1)C(Cl)Cl [CHLORAMPHENICOL]
Activity (Escherichia coli): >35 mm | Activity (Klebsiella pneumoniae): >35 mm

O=S(=O)(/C=C/c1ccc(O)c(O)c1)CCCc1ccccc1
Activity (PC-12): 94.5%

O=c1[nH]c(=O)n([C@H]2C[C@H](O)[C@@H](CO)O2)cc1/C=C/Br [BRIVUDINE]
EC50 (Human alphaherpesvirus 3): 20 nM

O=S(=O)(/C=C/c1ccc(O)c(O)c1)CCCC1CCCC1
IC50 (BV-2): 1600 nM | Kp [6]: 0.316 | Activity [7]: 4.36

CC(C)N1CCN(C(=O)N[C@@H](Cc2ccccc2)C(=O)N[C@H](/C=C/S(=O)(=O)c2ccccc2)CCc2ccccc2)CC1
IC50 (SARS-CoV): 0.04 nM | IC50 (Ebolavirus): 0.04 nM

COc1cc(/C=C/S(=O)(=O)c2ccccc2)cc(OC)c1OC
IC50 (A-431): 33500 nM | IC50 (A549): 54600 nM | IC50 (NCI-H1975): 30400 nM

CC(=O)N1CCN(c2ccc(OCC3COC(Cn4ccnc4)(c4ccc(Cl)cc4Cl)O3)cc2)CC1 (centres undefined) [KETOCONAZOLE]
Activity (Fusarium solani): >36 mm | Activity (Curvularia lunata): >36 mm | Activity (Aspergillus niger): >36 mm

CC(=O)OC[C@H]1O[C@@H](n2cc(/C(Cl)=C\S(=O)(=O)c3ccc(C)cc3)c(=O)[nH]c2=O)C[C@@H]1OC(C)=O
IC50 (L1210): 5600 nM | IC50 (CCRF-CEM): 11000 nM | IC50 (HeLa [8]): 23000 nM | EC50 (Human alphaherpesvirus 3): 4000 nM

COc1ccccc1/C=C/C=C(\Br)S(=O)(=O)F
IC50 (Cholinesterase [9]): 21 nM | IC50 (Cholinesterase [10]): 3620 nM | IC50 (Acetylcholinesterase): 79 nM | Ki (Cholinesterase [11]): 29 nM

CCN1CCN(C(=O)N[C@@H](Cc2ccccc2)C(=O)N[C@H](/C=C/S(=O)(=O)c2ccccc2)CCc2ccccc2)CC1
IC50 (SARS-CoV): 0.04 nM | IC50 (Ebolavirus): 0.04 nM

CC(C)(C)N1CCN(C(=O)N[C@@H](Cc2ccccc2)C(=O)N[C@H](/C=C/S(=O)(=O)c2ccccc2)CCc2ccccc2)CC1
IC50 (SARS-CoV): 0.04 nM | IC50 (Ebolavirus): 0.04 nM

CCCN1CCN(C(=O)N[C@@H](Cc2ccccc2)C(=O)N[C@H](/C=C/S(=O)(=O)c2ccccc2)CCc2ccccc2)CC1
IC50 (SARS-CoV): 0.04 nM | IC50 (Ebolavirus): 0.04 nM

O=c1oc2ccc([N+](=O)[O-])cc2cc1S(=O)(=O)Cc1ccc(F)cc1
inhibition (Homo sapiens): 50% | IC50 (HeLa [1]): 18100 nM

O=C(c1ccc(Cl)cc1)c1c[nH]cc1S(=O)(=O)c1c(-c2ccc(Cl)cc2)noc1-c1ccccc1
Activity (Staphylococcus aureus): >25 mm | Activity (Bacillus subtilis): >25 mm | Activity (Escherichia coli): >20 mm | Activity (Klebsiella pneumoniae): >20 mm | Activity (Fusarium solani): >26 mm | Activity (Curvularia lunata): >26 mm | Activity (Aspergillus niger): >26 mm

O=S(=O)(F)/C=C/c1ccc(-c2ccccc2)cc1
IC50 [4]: < 1000 nM

COc1cc(OC)c(/C=C/S(=O)(=O)Cc2ccc(OC)c(NCC(=O)O)c2)c(OC)c1 [RIGOSERTIB SODIUM]
IC50 (HeLa [1]): 10 nM

— ChEMBL document CHEMBL5126541, “Recent applications of vinyl sulfone motif in drug design and discovery” (Eur J Med Chem, 2022)
